Experiment: molar heat capacity at constant pressure
Settings: 101.33 kPa, Small (less than 1 g) adiabatic calorimetry

CCn1cc[n+](C)c1.[Br-] [1-ethyl-3-methylimidazolium bromide]
molar heat capacity at constant pressure [J/K/mol]
Settings	Crystal	Liquid
130 K	114.2	–
132.03 K	115.39	–
135.01 K	116.87	–
138 K	118.34	–
140 K	119.1	–
140.99 K	119.85	–
143.99 K	121.33	–
146.99 K	122.81	–
149.99 K	124.27	–
150 K	124.1	–
152.99 K	125.74	–
156 K	127.17	–
159 K	128.63	–
160 K	128.9	–
162.08 K	130.18	–
165.15 K	131.64	–
168.15 K	133.08	–
170 K	133.7	–
171.16 K	134.55	–
174.16 K	136.01	–
177.16 K	137.5	–
180 K	138.6	–
180.15 K	138.89	–
183.15 K	140.38	–
186.14 K	141.85	–
189.13 K	143.32	–
190 K	143.6	–
192.12 K	144.81	–
195.1 K	146.31	–
198.07 K	147.84	–
200 K	148.7	–
201.05 K	149.45	–
204.01 K	151.13	–
206.98 K	152.7	–
209.94 K	154.27	–
210 K	153.9	–
212.9 K	155.83	–
215.85 K	157.4	–
218.78 K	158.98	–
220 K	159.2	–
221.71 K	160.52	–
224.63 K	162.13	–
227.55 K	163.72	–
230 K	164.7	–
230.45 K	165.37	–
233.35 K	166.97	–
236.24 K	168.5	–
239.13 K	170.14	–
240 K	170.4	–
242 K	171.88	–
244.87 K	173.49	–
247.74 K	175.15	–
250 K	176.2	–
250.59 K	176.83	–
253.44 K	178.51	–
256.25 K	180.2	–
259.07 K	181.98	–
260 K	182.2	–
261.87 K	183.73	–
264.68 K	185.47	–
267.47 K	187.2	–
270 K	188.3	–
270.26 K	188.95	–
273.03 K	190.7	–
275.79 K	192.52	–
278.53 K	194.49	–
280 K	195.1	–
281.26 K	196.34	–
283.96 K	198.2	–
286.66 K	199.93	–
289.36 K	201.96	–
290 K	202	–
292.03 K	203.78	–
294.7 K	205.78	–
297.36 K	207.81	–
298.15 K	207.5	–
299.92 K	209.77	–
300 K	208.8	–
310 K	215.7	–
320 K	222.5	–
330 K	229.4	–
340 K	236.3	–
347.66 K	–	265.34
349.92 K	243.1	264.8
350 K	–	264.8
350.15 K	–	266.1
352.61 K	–	266.89
353.91 K	–	267.52
355.07 K	–	267.71
357.53 K	–	268.53
359.99 K	–	269.33
360 K	–	268.6
361.35 K	–	270.21
362.45 K	–	270.78
364.95 K	–	271.95
366.81 K	–	270.88
367.5 K	–	272.58
370 K	–	272.4

Reference: the NIST ThermoML archive (doi:10.1016/j.jct.2006.05.008)
